The source made the active and inactive calls.
Assays:
[1] = target: T1, Calpain-2 catalytic subunit (Sus scrofa, UniProt P43367); experiment: m-calpain protease blockers, concentration series – biochemical, fluorogenic peptide substrate, dose response (AID 1420); format: functional
T1 sequence (P43367 whole entry): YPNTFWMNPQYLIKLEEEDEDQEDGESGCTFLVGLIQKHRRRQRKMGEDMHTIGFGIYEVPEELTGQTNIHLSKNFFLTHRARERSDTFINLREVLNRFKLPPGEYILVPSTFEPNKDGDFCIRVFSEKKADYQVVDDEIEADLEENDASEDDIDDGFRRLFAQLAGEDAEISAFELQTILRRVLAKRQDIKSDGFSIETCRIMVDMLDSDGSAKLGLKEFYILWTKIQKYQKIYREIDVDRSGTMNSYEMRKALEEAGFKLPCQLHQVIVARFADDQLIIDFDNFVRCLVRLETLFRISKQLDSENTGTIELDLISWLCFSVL

BJ [2] = experiment: BJ-TERT-LT-ST fibroblast viability loss – cell-based, RAS-independent, luminescence, dose response (AID 1935); format: functional; conditions: Homo sapiens;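 further: BJ fibroblasts immortalized with TERT plus LT and ST oncogenes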
[3] = HEK-293T viability loss after treatment – luminescence, T-cell screen hits, cytotoxicity control for TCR NF-kB inhibitor project, dose response (AID 489026); format: functional, cell-based;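 further: cells exposed to compound about 14 hours before the viability readout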
BJ [4] = experiment: BJ-TERT fibroblast viability loss – cell-based, RAS-independent, luminescence, dose response (AID 1933); format: functional; conditions: Homo sapiens
BJ [5] = experiment: cells; format: functional, cell-based; conditions: Homo sapiens
[6] = DRD fibroblast viability loss – cell-based, non-viral oncogenic, luminescence, dose response (AID 1934); format: functional; conditions: Homo sapiens
[7] = target: Induced myeloid leukemia cell differentiation protein Mcl-1 (Homo sapiens, UniProt Q07820); format: functional
[8] = target: FAD-linked sulfhydryl oxidase ALR (Homo sapiens, UniProt P55789); experiment: ALR-catalysed DTT oxidation blockers – biochemical, H2O2 detection, luminescence, cherry-pick, dose response (AID 493248)
Caspase-6 = target: T2, Caspase-6 (Homo sapiens, UniProt P55212); experiment: inhibition of CASP6 peptide cleavage – biochemical, VEID-R110 fluorescence, cherry-pick, dose response (AID 720632)
T2 sequence (P55212 whole entry): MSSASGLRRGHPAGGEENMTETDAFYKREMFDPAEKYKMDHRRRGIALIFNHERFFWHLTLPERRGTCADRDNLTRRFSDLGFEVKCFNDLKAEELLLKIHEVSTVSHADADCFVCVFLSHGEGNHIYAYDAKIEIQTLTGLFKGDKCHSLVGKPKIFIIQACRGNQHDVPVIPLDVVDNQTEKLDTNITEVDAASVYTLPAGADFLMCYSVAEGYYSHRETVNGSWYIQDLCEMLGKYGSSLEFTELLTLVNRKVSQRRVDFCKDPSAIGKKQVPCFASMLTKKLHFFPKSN

[9] = target: T3, Sentrin-specific protease 8 (Homo sapiens, UniProt Q96LD8); format: functional;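 further: luminescence read-out of SENP8 inhibition, dose-response confirmation following an ultra-high-throughput screen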
T3 sequence (Q96LD8 whole entry): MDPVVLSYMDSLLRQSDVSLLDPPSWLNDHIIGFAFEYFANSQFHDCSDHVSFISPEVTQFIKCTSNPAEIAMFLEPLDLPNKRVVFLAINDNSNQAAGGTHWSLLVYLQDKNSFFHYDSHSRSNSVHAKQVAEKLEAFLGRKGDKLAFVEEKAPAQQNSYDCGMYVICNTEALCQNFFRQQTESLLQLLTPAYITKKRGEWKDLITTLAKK

[10] = viability of PTEN-deleted HCT116 cells – cell-based, HCT116 PTEN knockout, dose response (AID 1047); format: functional;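 further: HCT116 colon tumor cells with PTEN knocked out; cells exposed to compound for 60 hours before readout; potency for loss of cell viability measured by luminescence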
[11] = target: T4, Sentrin-specific protease 6 (Homo sapiens, UniProt Q9GZR1); format: functional;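 further: Luminescence-based dose-response confirmatory assay of SENP6 inhibition, following up an ultra-high-throughput screen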
T4 sequence (Q9GZR1 whole entry): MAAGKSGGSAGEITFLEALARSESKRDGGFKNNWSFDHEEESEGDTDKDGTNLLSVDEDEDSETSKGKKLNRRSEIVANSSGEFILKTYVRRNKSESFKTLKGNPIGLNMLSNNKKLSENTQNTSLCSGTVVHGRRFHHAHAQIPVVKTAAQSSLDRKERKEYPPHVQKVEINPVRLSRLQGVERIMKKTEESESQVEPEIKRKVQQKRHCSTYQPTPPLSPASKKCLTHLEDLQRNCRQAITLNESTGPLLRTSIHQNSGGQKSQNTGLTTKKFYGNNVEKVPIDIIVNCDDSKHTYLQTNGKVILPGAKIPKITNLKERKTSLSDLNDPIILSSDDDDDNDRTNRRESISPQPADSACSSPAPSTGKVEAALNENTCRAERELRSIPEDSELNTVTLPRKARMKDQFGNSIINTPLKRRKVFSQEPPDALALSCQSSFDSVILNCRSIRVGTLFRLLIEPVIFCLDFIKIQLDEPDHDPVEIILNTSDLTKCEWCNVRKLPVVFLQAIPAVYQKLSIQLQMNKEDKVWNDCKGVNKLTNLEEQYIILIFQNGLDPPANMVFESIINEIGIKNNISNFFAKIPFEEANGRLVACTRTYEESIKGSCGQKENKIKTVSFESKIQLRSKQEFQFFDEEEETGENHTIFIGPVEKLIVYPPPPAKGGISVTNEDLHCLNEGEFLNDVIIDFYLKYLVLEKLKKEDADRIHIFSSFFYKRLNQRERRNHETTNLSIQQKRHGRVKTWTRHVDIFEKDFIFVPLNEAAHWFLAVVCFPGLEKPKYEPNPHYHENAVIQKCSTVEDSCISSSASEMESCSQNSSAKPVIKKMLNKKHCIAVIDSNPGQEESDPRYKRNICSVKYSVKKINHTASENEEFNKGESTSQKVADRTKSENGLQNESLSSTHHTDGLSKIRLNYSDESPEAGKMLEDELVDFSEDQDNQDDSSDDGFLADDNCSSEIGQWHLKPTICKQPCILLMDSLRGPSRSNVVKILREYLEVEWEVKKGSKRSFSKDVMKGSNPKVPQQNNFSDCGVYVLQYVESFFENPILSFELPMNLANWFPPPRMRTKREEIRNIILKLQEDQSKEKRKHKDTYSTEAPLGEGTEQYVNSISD

[12] = viability of HCT116 lacking mutant beta-catenin – cell-based, human colon tumor, dose response (AID 1045); format: functional;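 further: HCT116 colon tumor cells with beta catenin knocked out; cells exposed to compound for 60 hours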
[13] = target: T5, Sentrin-specific protease 7 (Homo sapiens, UniProt Q9BQF6); format: functional;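 further: Luminescence-based dose-response confirmation of ultra-high-throughput screening hits, measuring inhibition of SENP7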
T5 sequence (Q9BQF6 whole entry): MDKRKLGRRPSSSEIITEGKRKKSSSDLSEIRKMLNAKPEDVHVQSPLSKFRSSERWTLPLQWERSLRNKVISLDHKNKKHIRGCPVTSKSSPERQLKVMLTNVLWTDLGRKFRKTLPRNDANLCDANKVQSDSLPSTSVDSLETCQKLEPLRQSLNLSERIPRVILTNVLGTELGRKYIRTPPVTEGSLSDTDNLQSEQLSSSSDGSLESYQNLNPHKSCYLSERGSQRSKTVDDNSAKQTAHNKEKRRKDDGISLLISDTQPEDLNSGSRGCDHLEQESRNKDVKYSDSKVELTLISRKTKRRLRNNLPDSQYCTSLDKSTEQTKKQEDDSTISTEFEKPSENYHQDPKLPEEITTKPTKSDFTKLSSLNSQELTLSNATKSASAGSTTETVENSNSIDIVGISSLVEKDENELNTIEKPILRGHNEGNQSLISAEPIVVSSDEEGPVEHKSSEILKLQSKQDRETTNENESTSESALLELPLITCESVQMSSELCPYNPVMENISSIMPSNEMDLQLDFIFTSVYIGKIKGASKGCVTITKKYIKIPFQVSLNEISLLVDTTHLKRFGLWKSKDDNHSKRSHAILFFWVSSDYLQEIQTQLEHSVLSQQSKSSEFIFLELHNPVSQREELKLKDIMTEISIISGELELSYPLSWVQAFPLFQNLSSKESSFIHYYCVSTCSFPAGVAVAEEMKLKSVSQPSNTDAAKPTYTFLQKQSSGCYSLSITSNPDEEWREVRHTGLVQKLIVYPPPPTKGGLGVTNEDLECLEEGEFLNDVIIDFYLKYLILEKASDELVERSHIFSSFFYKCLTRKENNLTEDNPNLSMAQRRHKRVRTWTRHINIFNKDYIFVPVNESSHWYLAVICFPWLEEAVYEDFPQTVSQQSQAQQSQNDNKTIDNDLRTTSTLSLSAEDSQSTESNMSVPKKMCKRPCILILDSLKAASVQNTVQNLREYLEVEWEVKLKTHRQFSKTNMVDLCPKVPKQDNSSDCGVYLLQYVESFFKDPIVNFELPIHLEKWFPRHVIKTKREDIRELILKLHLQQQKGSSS

Caspase-3 = target: T6, Caspase-3 (Homo sapiens, UniProt P42574); format: functional;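 further: Dose-response selectivity test against caspase-3 for candidate inhibitors of sentrin-specific proteases (SENPs)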
T6 sequence (P42574 whole entry): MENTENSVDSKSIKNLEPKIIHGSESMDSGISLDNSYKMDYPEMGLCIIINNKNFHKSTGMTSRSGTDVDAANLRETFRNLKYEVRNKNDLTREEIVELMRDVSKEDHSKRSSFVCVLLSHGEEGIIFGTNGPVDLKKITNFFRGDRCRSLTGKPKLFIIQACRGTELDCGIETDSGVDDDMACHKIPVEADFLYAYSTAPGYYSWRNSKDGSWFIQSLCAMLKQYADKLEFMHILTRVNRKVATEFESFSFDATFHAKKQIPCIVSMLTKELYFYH

Prothrombin = Prothrombin (Homo sapiens, UniProt P00734); experiment: Thrombin 1536 HTS Dose Response Confirmation. [Related pubchem assays: 1046 (Thrombin 1536 HTS; hits were confirmed in this assay)]; format: functional
[14] = alpha-synuclein stem-loop luciferase translation blockers – H4 neuroglioma cells, luminescence, confirmation (AID 1988); format: functional, cell-based
Large T antigen = Large T antigen (Simian virus 40, UniProt P03070); format: functional, Betapolyomavirus macacae;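 further: Confirmatory-stage PubChem screen for compounds that inhibit SV40 T antigen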
[15] = Luminescence Cell-Based Dose Response HTS to Identify Inhibitors of 5'UTR Stem-Loop Driven Prion Protein mRNA Translation in H4 Neuroglioblastoma Cells. [Related pubchem assays: 1827 (Project Summary), 1813 (Primary HTS)]; format: functional
[16] = luciferase reporter signal suppression in cells – H4 neuroglioma cells, luminescence, dose response (AID 1990); format: functional, cell-based
Cytochrome P450 2C19 = Cytochrome P450 2C19 (Homo sapiens, UniProt P33261); experiment: Cytochrome panel assay with activity outcomes. Panel member name: p450-cyp2c19 Compounds with AC50 equal or less than 10 uM are considered active; format: functional; conditions: read-out: AC50
Cytochrome P450 2C9 = Cytochrome P450 2C9 (Homo sapiens, UniProt P11712)
Cytochrome P450 2C9, sequence (P11712 whole entry): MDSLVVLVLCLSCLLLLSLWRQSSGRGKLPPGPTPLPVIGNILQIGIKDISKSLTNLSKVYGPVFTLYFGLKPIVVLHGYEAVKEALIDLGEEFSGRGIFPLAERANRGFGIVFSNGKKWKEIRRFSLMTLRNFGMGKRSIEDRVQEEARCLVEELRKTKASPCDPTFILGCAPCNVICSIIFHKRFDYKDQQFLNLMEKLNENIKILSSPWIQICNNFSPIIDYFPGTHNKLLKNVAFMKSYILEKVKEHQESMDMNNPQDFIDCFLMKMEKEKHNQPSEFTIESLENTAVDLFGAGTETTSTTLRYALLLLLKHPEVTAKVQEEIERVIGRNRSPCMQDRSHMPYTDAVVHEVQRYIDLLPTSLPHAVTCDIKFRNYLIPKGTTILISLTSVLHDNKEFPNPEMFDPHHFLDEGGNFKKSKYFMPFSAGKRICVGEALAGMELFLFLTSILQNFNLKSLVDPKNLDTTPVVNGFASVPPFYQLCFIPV

Induced myeloid leukemia cell differentiation protein Mcl-1, sequence (Q07820 whole entry): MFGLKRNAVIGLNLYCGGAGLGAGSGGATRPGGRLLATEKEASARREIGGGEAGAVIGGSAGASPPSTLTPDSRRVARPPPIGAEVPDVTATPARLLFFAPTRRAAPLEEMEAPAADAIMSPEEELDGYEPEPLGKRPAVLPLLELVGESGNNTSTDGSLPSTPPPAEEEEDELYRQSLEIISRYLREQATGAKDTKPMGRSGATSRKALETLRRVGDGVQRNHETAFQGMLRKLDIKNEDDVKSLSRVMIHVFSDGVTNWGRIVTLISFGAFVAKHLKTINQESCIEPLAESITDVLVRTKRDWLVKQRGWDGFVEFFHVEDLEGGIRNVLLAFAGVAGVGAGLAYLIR
FAD-linked sulfhydryl oxidase ALR, sequence (P55789 whole entry): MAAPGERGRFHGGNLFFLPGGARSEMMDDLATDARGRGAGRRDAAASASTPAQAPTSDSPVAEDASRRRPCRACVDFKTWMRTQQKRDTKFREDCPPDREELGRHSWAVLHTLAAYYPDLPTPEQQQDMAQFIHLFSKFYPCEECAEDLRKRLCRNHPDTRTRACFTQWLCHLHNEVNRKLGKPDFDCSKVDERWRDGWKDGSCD
Large T antigen, sequence (P03070 whole entry): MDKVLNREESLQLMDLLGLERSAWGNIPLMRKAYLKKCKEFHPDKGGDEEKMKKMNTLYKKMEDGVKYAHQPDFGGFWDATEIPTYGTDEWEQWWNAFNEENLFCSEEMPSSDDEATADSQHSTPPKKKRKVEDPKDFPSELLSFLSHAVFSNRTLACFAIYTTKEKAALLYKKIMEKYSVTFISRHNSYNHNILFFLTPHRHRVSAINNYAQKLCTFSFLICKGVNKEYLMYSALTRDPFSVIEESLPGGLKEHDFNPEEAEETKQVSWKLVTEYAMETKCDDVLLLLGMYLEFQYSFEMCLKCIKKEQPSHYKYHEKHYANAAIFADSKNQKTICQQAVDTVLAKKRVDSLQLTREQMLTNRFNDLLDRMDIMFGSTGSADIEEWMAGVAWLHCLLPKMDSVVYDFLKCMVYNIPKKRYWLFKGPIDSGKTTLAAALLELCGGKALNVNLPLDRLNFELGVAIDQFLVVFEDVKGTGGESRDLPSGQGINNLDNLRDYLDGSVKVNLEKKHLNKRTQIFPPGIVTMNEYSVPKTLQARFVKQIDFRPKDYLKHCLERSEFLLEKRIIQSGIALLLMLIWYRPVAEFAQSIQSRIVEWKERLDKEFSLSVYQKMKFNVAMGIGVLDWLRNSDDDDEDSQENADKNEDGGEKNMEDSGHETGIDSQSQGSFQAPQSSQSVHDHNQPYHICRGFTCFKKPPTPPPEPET
Cytochrome P450 2C19, sequence (P33261 whole entry): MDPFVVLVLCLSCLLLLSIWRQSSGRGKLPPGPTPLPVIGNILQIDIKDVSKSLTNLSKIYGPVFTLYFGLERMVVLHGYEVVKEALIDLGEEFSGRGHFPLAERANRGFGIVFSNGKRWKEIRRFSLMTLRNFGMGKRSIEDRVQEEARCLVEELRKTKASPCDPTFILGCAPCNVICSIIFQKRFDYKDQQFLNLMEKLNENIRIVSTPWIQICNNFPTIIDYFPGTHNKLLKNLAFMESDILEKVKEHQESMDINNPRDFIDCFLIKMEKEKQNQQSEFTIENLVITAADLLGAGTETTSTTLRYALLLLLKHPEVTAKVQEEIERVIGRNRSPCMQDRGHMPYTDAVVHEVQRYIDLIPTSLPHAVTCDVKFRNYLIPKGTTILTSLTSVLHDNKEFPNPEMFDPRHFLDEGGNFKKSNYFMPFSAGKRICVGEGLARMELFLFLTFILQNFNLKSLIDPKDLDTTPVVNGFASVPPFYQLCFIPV

## Cc1ccc(NC(S)=NC(C)CCc2ccccc2)cc1C (stereo unspecified)
[1]
  IC50: 17.3 µM (not active)

## C/C(=N\OCC(=O)NC12CC3CC(CC(C3)C1)C2)c1cc2ccccc2o1
[1]
  IC50: 8.83 µM (not active)

## CCOc1ccc(N(CC(=O)Nc2ccccc2C)S(=O)(=O)c2c(C)noc2C)cc1
BJ [2]
  EC50: 16.9 µM (active)
[3]
  IC50: > 80 µM (inactive)
BJ [4]
  EC50: 5.06 µM (active)
BJ [5]
  EC50: 29.9 µM (active)
[6]
  EC50: 4.15 µM (active)

## OC1=C2C(=Nc3ccc4ncccc4c3C2c2ccc(O)c(O)c2)CCC1 (stereo unspecified)
[7]
  IC50: 4.38 µM (active)

## CCc1nn2c(=O)cc(COc3ccc(/C=C4\C(=N)N5N=C(C)SC5=NC4=O)cc3)nc2s1
[7]
  IC50: 4.66 µM (active)

## COc1cc(/C=C2\SC(=S)N(CC(=O)O)C2=O)ccc1OS(=O)(=O)c1ccc(C)cc1
[8]
  AC50: 2.07 µM (active)
Caspase-6
  AC50: 46.2 µM (active)

## Cn1c(N)c(C(=O)COC(=O)C2CCC(C(C)(C)C)CC2)c(=O)n(C)c1=O (stereo unspecified)
[1]
  IC50: 10.4 µM (active)

## Oc1[nH]c2ccccc2c1N=Nc1nc2ccccc2s1
[9]
  IC50: > 100 µM (inactive)
[10]
  EC50: 26.5 µM (active)
[11]
  IC50: 66.4 µM (active)
[12]
  EC50: 32.3 µM (active)
[7]
  IC50: 3.84 µM (active)
[13]
  IC50: 4.3 µM (active)
Caspase-3
  IC50: 27.6 µM (active)

## COc1cc(-n2c(=O)c3ccccc3n(Cc3cccc(C)c3)c2=O)cc(OC)c1OC
[1]
  IC50: 19.3 µM (active)

## CC(=O)n1nc(-c2ccc(C)cc2)nc1NCc1ccc(F)cc1
Prothrombin
  IC50: 0.373 µM (active)

## Nc1ccc(OC(=O)Nc2ccc(O)cc2)cc1
[14]
  EC50: 9.76 µM (active)
Large T antigen
  IC50: 6.52 µM (active)
[8]
  AC50: 1.38 µM (active)
[15]
  EC50: 11.7 µM (active)
Caspase-6
  AC50: 18.7 µM (active)
[16]
  EC50: 11.2 µM (active)

## COc1ccc(/C=N/Nc2nncc3ccccc23)cc1
BJ [2]
  EC50: 18.6 µM (active)
BJ [4]
  EC50: 8.72 µM (active)
BJ [5]
  EC50: 9.05 µM (active)
[6]
  EC50: 7.41 µM (active)

## Cc1ccccc1NC(=S)NCCC(c1ccccc1)c1ccccc1
[1]
  IC50: 2.48 µM (not active)

## O=C(COC(=O)Cc1ccccc1)Nc1cc(S(=O)(=O)N2CCCCC2)ccc1Cl
Caspase-6
  AC50: 38.3 µM (active)

## CC(C)C(=O)n1nc(-c2cccnc2)nc1NCc1cccs1
Prothrombin
  IC50: 0.006 µM (active)

## COc1ccc(C(=O)Nc2cccc(-c3cc4ccccc4oc3=O)c2)cc1[N+](=O)[O-]
[1]
  IC50: 12.3 µM (not active)

## Oc1ccccc1C1Nc2cccc3cccc(c23)N1
Cytochrome P450 2C19
  AC50: 3.16 µM (inconclusive)
[7]
  IC50: 3.25 µM (active)

## COCC(=O)n1nc(-c2ccc(C)cc2)nc1NCc1ccc(F)cc1
Prothrombin
  IC50: 0.502 µM (active)

## COc1cccc(NC(=S)N(CCCN2CCCC2)Cc2ccco2)c1
Prothrombin
  IC50: > 50 µM (inconclusive)

## COc1ccc(C(=O)n2nc(-c3ccccc3)nc2SC)cc1
Prothrombin
  IC50: 0.913 µM (active)
Cytochrome P450 2C9
  AC50: 0.141 µM (inconclusive)

From ChEMBL document CHEMBL1201862, “PubChem BioAssay data set” (2004)
